Reference: patent US6413995B1, “Cinnamamide derivatives and drug compositions containing the same” (Tsumura & Co., priority 1999, dated 2002)
Read-outs that look alike come from different tables or passages of the source. Values belong to the molecule of their own block, whether it stands above or below them.

How the values were obtained:
IL-12 = experiment: Inhibition of IL-12 production by mouse peritoneal macrophages (ELISA); format: cell-based, mice; conditions: Macrophage, 48 hours, read-out: Inhibitory rate (%) IL-12; for inhibition at 10 µM: 10 μM/L
Description: (§1) C57BL/6CrSlc male mice were intraperitoneally injected with 2.0 ml of 3% Brewer tioglycolate medium. Three days later, macrophages were collected from the abdominal cavity with 5.0 ml Hank's balanced salt solution, and then equally divided into each well of a 48-well plate using RPMI 1640 medium supplemented with 10% FBS (Fetal Bovine Serum), followed by incubation in a CO2 incubator for 1 hour. After the macrophages adhered to the walls of the plate, they were incubated for 48 hours in the presence of a test compound with different concentrations. Following the incubation, the supernatant was collected from each well, assayed for IL-6, IL-10 and L-12 by ELISA to determine inhibitory rates against the production of these interleukins.

IL-6 = experiment: Inhibition of IL-6 production by mouse peritoneal macrophages (ELISA); format: cell-based, mice; conditions: Macrophage, 48 hours, read-out: Inhibitory rate (%) IL-6
Description: as §1

Thromboxane A2 Synthase = target: T1, Thromboxane A2 Synthase (Rattus norvegicus, UniProt P49430); experiment: Inhibitory effect on thromboxane A2 synthase: TXB2 in rat platelet rich plasma; format: cell-based, rats; conditions: 10 μmol/l, rat PRP
T1 construct: centrifuged at 1,300 rpm for 7 minutes to obtain platelet rich plasma (PRP); from tissue; host or cells: platelet rich plasma (washed platelets) from the abdominal aorta blood of Sprague-Dawley rats
T1 sequence (P49430 1-533): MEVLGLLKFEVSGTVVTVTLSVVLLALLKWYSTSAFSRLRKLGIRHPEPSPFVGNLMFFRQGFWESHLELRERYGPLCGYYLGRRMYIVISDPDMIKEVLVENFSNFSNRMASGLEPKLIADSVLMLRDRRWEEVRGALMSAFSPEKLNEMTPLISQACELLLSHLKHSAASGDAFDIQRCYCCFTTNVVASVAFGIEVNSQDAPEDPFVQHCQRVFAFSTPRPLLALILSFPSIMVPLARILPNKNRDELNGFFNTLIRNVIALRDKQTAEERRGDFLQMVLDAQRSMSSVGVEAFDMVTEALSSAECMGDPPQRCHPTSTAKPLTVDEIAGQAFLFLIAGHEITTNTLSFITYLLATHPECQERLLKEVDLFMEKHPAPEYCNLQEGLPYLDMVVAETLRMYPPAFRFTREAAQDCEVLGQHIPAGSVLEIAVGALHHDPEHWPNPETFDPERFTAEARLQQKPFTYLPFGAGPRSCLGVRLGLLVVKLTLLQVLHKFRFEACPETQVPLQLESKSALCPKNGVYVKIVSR
Description: Eight week old Sprague-Dawley male rats were used in this example. The rats were anesthetized with pentobarbital sodium. The blood was collected from the abdominal aorta using a heparinized syringe, and centrifuged at 1,300 rpm for 7 minutes to obtain platelet rich plasma (PRP). PRP was suspended in an equivalent volume of a buffer containing 25 mmol/l Tris-HCl, 130 mmol/l sodium chloride and 0.3 mmol/l EDTA (pH 7.4)(buffer A), followed by centrifugation at 4° C., at 1,500 rpm for 5 minutes. This procedure was repeated twice, and PRP was finally suspended in a buffer containing 25 mmol/l Tris-HCl, 130 mmol/l, 0.1% glucose and 0.1% albumin (pH7.4)(buffer B).
5×10^6 cells/mm^3 PRP preparation in buffer B was divided into each well of a 96-well plate in an amount of 150 μl/well. Each test substance was prepared at a final concentration of 10 μmol/l and added to the PRP preparation in an amount of 50 μl/well. Immediately after addition of the test substance, 5 μl of an aggregation-inducing agent, type IV collagen (1 mg/ml) or arachidonic acid (50 mmol/l), was added and incubated for 10 minutes. 20 μl of an EDTA-indomethacin solution was added to the each well to stop the reaction. The supernatant was assayed for thromboxane B2 (TXB2), stable metabolite of thromboxane A2 (TXA2), using a TXB2 measurement kit (Cayman).

IL-10 = experiment: Inhibition of IL-10 production by mouse peritoneal macrophages (ELISA); format: cell-based, mice; conditions: Macrophage, 48 hours, read-out: Inhibitory rate (%) IL-10
Description: as §1

[1] = system: Rats with Minimal Change Nephrosis; experiment: Inhibitory effects on urinary proteins in rats with minimal change nephrosis (Puromycin Aminonucleoside); format: in vivo; conditions: S.D. male rats, PA 50 mg/kg i.v., test drug 2 mg/kg/day from day 6 to day 11, assayed at day 11
Description: Six week old S.D. male rats were intravenously injected with Puromycin Aminonucleoside (PA; SIGMA)at a dose of 50 mg/kg so as to develop nephrosis. Six days after PA treatment, the rats were administered with a test drug at a dose of 2 mg/kg/day by day 11. Each rat was assayed for an excreted urinary protein level at day 11 to determine an inhibitory rate.

- melting point: 160 to 161 °C
Structure (SMILES): O=C(O)CSc1ccc(/C=C/C(=O)NCc2cccnc2)cc1 [Example 89, [[4-[(E)-2-[N-(3-pyridylmethyl)carbamoyl]ethenyl]phenyl]thio]acetic acid]
- inhibition at 10 µM (IL-12): 51.1%

- melting point: 212 °C
Structure (SMILES): Cl.O=C(O)CCc1ccc(/C=C/C(=O)NCc2cccnc2)cc1

- melting point: 228 to 229 °C
Structure (SMILES): C/C(=C\C(=O)NCc1cccnc1)c1ccc(OCC(=O)O)cc1 [Example 86, [4-[(E)-1-methyl-2-[N-(3-pyridylmethyl)carbamoyl]ethenyl]phenoxy]acetic acid]
- inhibition at 10 µM (IL-12): 48.4%

- inhibition at 10 µM (Thromboxane A2 Synthase; arachidonic acid, 10 minutes, read-out: TXB2 induced by arachidonic acid (Inhibitory rate; %)): 67%
- inhibition at 10 µM (Thromboxane A2 Synthase; type IV collagen, 10 minutes, read-out: TXB2 induced by collagen (Inhibitory rate; %)): 32%
- inhibition at 10 µM (Thromboxane A2 Synthase; summary of Table 3, read-out: inhibitory activity against TXA2 production mediated by collagen or arachidonate): ≥ 50%
Structure (SMILES): CCOC(=O)COc1ccc(/C=C/C(=O)NCc2cccnc2)cc1 [Example 1, Ethyl [4-[(E)-2-[N-(3-Pyridylmethyl)carbamoyl]ethenyl]phenoxy]acetate]
- inhibition at 1 µg/mL (IL-6; 1 μg/ml): 29.3%
- inhibition at 5 µg/mL (IL-6; 5 μg/ml): 34.5%
- inhibition at 10 µg/mL (IL-6; 10 μg/ml): 40.4%
- inhibition at 1 µg/mL (IL-10; 1 μg/ml): 2.1%
- inhibition at 5 µg/mL (IL-10; 5 μg/ml): 29.1%
- inhibition at 10 µg/mL (IL-10; 10 μg/ml): 23.7%
- Inhibitory rate (%) of excreted urinary protein level [1]: 41%
- inhibition at 1 µg/mL (IL-12; 1 μg/ml): 32.4%
- inhibition at 5 µg/mL (IL-12; 5 μg/ml): 39.5%
- inhibition at 10 µg/mL (IL-12; 10 μg/ml): 64.6%
